Laboratory results reported in patent publication US8354547B2, “4β-amino podophyllotoxin congeners as anti tumour antibiotics a process for the preparation thereof” (Council of Scientific & Industrial Research, priority 2008, dated 2013).

Tests used:
[1] = system: Neuroblastoma (IMR-32) cancer cell line; assay: SRB in vitro cytotoxicity assay, Neuroblastoma IMR-32; format: cell-based, human; details: concentration 1 × 10^−5 (μM/mL)
Description: (§1) Single cell suspension of the tumor cells grown in tissue culture were made, cells counted and cell count adjusted to 1×10^5 to 5×10^5 Ninetysix (96) well plates were seeded with this cell suspension, each well receiving 100 μl of it. The plate was then be incubated at 37° C. temperature in CO2 incubator for 24 hours. Drugs were added at appropriate concentrations after 24-hour, incubation followed by further incubation for 48 hours. Experiment was terminated by gently layering the cells in the wells with 30% TCA and plates were kept in refrigerator for 1 hour following which they were washed thoroughly with tap water, dried attained with 0.4% SRB in 1% acetic aid and finally, the bound SRB eluted with 10 mM tris. Absorbance was read at 540 nm, in the microtitre-plate reader. Optical density of drug-treated cells was compared with that of control cells and cell inhibition was calculated as percent values. […]

Lukemia (HL-60) cells = assay: DNA cell cycle analysis by flow cytometry; format: cell-based; details: 0.5, 1, 5, and 10 μM, 24 hr (FIG. 5)
Description: (§2) Compound 3d evaluated for DNA laddering assay.
Effect of compound 3d on DNA content by cell cycle phase distribution was assessed using HL-60 cells by incubating the HL-60 cells (1×10^6) 1 ml phosphate buffer saline were treated with 3d (0.5, 1, 5, 10 μM) for 24 hr. The cells were then washed twice with ice-cold PBS, harvested, fixed with ice cold PBS in 70% ethanol, and stored at −20° C. for 30 minutes. After Fixation, these cells were incubated with RNase A (0.1 mg/ml) at 37° C. for 30 min, stained with propidium iodide (50 μg/ml) for 30 min on ice in dark, and then measured for DNA content using BD-LSR flow cytometer (Becton Dickinson, USA) equipped with electronic doublet discrimination capability using blue (488 nm) excitation from orgon laser. Data were collected in list mode on 10,000 events for FL2-A vs. FL2-W (FIG. 5).

[2] = system: Liver (HEP-2) cancer cell line; assay: SRB in vitro cytotoxicity assay, Liver HEP-2; format: cell-based, human; details: concentration 1 × 10^−5 (μM/mL)
Description: as §1

[3] = system: CNS (SK-N-SH) cancer cell line; assay: SRB in vitro cytotoxicity assay, CNS SK-N-SH; format: cell-based, human; details: concentration 1 × 10^−5 (μM/mL)
Description: as §1

Topoisomerase-I = biological target: T1, Topoisomerase-I (Homo sapiens, UniProt P11387); assay: Topoisomerase-I relaxation assay; format: biochemical; details: at 100 μM (FIG. 2)
T1 sequence (P11387 1-765): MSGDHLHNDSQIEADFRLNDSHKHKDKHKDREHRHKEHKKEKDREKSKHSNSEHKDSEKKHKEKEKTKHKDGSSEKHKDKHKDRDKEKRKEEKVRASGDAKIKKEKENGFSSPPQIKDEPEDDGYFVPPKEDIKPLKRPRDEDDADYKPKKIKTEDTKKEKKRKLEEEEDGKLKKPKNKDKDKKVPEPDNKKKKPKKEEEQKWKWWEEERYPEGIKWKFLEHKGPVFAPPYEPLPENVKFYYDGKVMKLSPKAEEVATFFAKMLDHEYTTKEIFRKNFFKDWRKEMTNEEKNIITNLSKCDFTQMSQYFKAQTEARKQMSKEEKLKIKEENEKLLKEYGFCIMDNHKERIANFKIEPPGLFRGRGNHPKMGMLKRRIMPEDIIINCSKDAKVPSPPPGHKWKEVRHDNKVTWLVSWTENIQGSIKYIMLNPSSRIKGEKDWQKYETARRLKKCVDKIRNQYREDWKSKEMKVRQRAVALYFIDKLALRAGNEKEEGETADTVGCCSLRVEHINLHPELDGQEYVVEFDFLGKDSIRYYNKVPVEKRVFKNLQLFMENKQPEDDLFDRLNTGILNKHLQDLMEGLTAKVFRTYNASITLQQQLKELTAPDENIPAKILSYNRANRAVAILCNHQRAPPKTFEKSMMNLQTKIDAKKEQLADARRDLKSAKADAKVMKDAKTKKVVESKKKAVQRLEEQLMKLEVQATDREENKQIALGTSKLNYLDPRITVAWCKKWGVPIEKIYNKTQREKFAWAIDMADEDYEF
Description: Apart from this, some of these analogues were evaluated for Topoisomerase-I relaxation, Topoisomerase-II inhibition, DNA laddering assay and DNA cell cycle analysis. Compounds 3c, 4c, 3d and 4d were analyzed for topoisomerase-I assay at 100 μM (FIG. 2) only compound 3d was found active and rest were not active. Compounds 3d, 4d and 4c were analyzed for topoisomerase inhibition assay.
Reaction was assembled in micro centrifuge tube that contains super coiled DNA 250 ng/μl & Topoisomerase-I (4 units) in assay buffer (10 mM Tris-HCl, pH 7.9, 0.15 M NaCl, 0.1% BSA, and 5.0 mM (beta)-mercaptoethanol). In each reaction 2 μl sample was added then volume was made up to 20 μl with water and then incubated at 37° C. Reaction was terminated by addition of 2 μl of 10% SDS. Each sample tube was treated with proteinase K and extracted once with chloroform: isoamyl alcohol. Products were resolved by 0.8% agarose gel electrophoresis in TAE buffer (40 mM tris-acetate, pH 8.0, and 1 mM EDTA) and stained with 0.5 μg/ml ethedium bromide (EtBr).

[4] = system: Breast (MCF-7) cancer cell line; assay: SRB in vitro cytotoxicity assay, Breast MCF-7; format: cell-based, human; details: concentration 1 × 10^−5 (μM/mL)
Description: as §1

[5] = system: Colon (Colo-205) cancer cell line; assay: SRB in vitro cytotoxicity assay, Colon Colo-205; format: cell-based, human; details: concentration 1 × 10^−5 (μM/mL)
Description: as §1

leukemia (MOLT-4) cells = assay: DNA laddering (fragmentation) assay by gel electrophoresis; format: cell-based; details: 0.5, 1, 5, and 10 μM, 24 hr incubation (FIG. 4)
Description: as §2
DNA fragmentation was determined by electrophoresis of extracted genomic DNA form leukemia cell (MOLT4). Briefly, exponentially growing cells (2×10^6 cells/mL) in 6 well plate were treated with compound 3d in 0.5, 1, 5 and 10 μM concentrations for 24 hrs. Cells were harvested, washed with PBS, pellets were dissolved in lyris buffer (10 mM EDTA, 50 mM Tris pH 8.0, 0.5% w/v SDS and proteinase K (0.5 mg/mL) and incubated at 50° C. for 1 hr. Finally the DNA obtained was heated rapidly to 70° C., supplemented with loading dye and immediately resolved on to 1.5% agarose gel at 50 V for 2-3 hrs (FIG. 4).

[6] = system: Colon (SW-620) cancer cell line; assay: SRB in vitro cytotoxicity assay, Colon SW-620; format: cell-based, human; details: concentration 1 × 10^−5 (μM/mL)
Description: as §1

SMILES: COc1cc([C@@H]2c3cc4c(cc3[C@@H](Nc3cc5c6ccccc6ccc5c5ccccc35)[C@@H]3COC(=O)[C@H]23)OCO4)cc(OC)c1OC [Compound 3d, 4β-(6″-Chrycenylamino)-4-desoxypodophyllotoxin]
- Growth Inhibition(%) Neuroblastma IMR-32 [1]: 1%
- cell cycle phase block (Lukemia (HL-60) cells): blocks the G1 Phase
- sub G1 cell population (apoptosis) (Lukemia (HL-60) cells): increase
- Growth Inhibition(%) Liver HEP-2 [2]: 66%
- Growth Inhibition(%) CNS SK-N-SH [3]: 73%
- activity in topoisomerase-I assay (Topoisomerase-I): active
- Growth Inhibition(%) Breast MCF-7 [4]: 0%
- Growth Inhibition(%) Colon Colo-205 [5]: 51%
- DNA fragmentation (leukemia (MOLT-4) cells): induced DNA fragmentation
- Growth Inhibition(%) Colon SW-620 [6]: 14%
